Source: US20150105252A1, “SUBSTITUTED PYRAZOLES AS HERBICIDES” (E I DU PONT DE NEMOURS AND COMPANY, priority 2013, published 2015)

Columns and labels:
[1] = test system: blackgrass; assay: Test C postemergence; type: in vivo, Alopecurus myosuroides; details: for Plant response rating (scale of 0 to 100 where 0 is no effect and 100 is complete control), Blackgrass: Postemergence, 31 g ai/ha, visually evaluated after 13 to 15 days; for Blackgrass plant response rating / Plant response rating, Blackgrass: postemergence; for Blackgrass plant response rating: 62 g ai/ha, scale 0 to 100
Procedure, shortened: (§1)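 Postemergence values come from plants sprayed at the 1- to 4-leaf stage (2–18 cm) in peat moss–vermiculite medium; preemergence values from seeds treated in a loam–sand blend. Both evaluated visually against controls after 13–15 greenhouse days, scale 0–100.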

[2] = test system: oilseed rape; assay: Test C postemergence; type: in vivo, Brassica napus; details: for Oilseed Rape plant response rating / Plant response rating, Oilseed Rape: postemergence; for Oilseed Rape plant response rating: 62 g ai/ha, scale 0 to 100
Procedure, shortened: as §1

[3] = test system: velvetleaf; assay: Test A preemergence; type: in vivo, Abutilon theophrasti; details: preemergence; for Velvetleaf plant response rating (0 to 100 scale): visual injury approx. 10 days after treatment
Procedure, shortened: (§2)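 Scoring was visual, on a scale where 100 means complete control and 0 means no effect, comparing treated with untreated plants around 10 days post-application. Compounds in surfactant-containing non-phytotoxic solvent were sprayed onto soil preemergence or onto one- to two-leaf seedlings (2–10 cm) postemergence.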

[4] = test system: morningglory; assay: Test C preemergence; type: in vivo, Ipomoea coccinea; details: for Morningglory plant response rating / Plant response rating, Morningglory: preemergence; for Plant response rating, Morningglory: scale 0 to 100, 0 = no effect, 100 = complete control
Procedure, shortened: as §1

[5] = test system: pigweed; assay: Test A preemergence; type: in vivo, Amaranthus retroflexus; details: preemergence; for Pigweed plant response rating (0 to 100 scale): visual injury approx. 10 days after treatment
Procedure, shortened: as §2

[6] = test system: wheat; assay: Test A postemergence; type: in vivo, Triticum aestivum
Procedure, shortened: as §2

[7] = test system: galium; assay: Test C postemergence; type: in vivo, Galium aparine; details: for Plant response rating (scale of 0 to 100 where 0 is no effect and 100 is complete control), Galium: Postemergence, 31 g ai/ha, visually evaluated after 13 to 15 days; for Galium plant response rating / Plant response rating, Galium: postemergence; for Galium plant response rating: 62 g ai/ha, scale 0 to 100
Procedure, shortened: as §1

[8] = test system: corn; assay: Test A preemergence; type: in vivo, Zea mays; details: preemergence; for Corn plant response rating (0 to 100 scale): visual injury approx. 10 days after treatment
Procedure, shortened: as §2

[9] = test system: foxtail, giant; assay: Test A preemergence; type: in vivo, Setaria faberii; details: preemergence; for Foxtail, Giant plant response rating (0 to 100 scale): visual injury approx. 10 days after treatment
Procedure, shortened: as §2

[10] = test system: ducksalad; assay: Test B flood; type: in vivo, Heteranthera limosa; details: 250 g ai/ha, visual rating on 0 to 100 scale (0 no effect, 100 complete control), 13 to 15 days
Procedure, shortened: (§3)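 Response scored visually, 0–100 relative to controls, 13–15 days after the compound was applied into paddy water; plants were at the 2-leaf stage in pots kept flooded to 3 cm.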

[11] = test system: barnyardgrass; assay: Test C preemergence; type: in vivo, Echinochloa crus-galli; details: for Barnyardgrass plant response rating / Plant response rating, Barnyardgrass: preemergence; for Plant response rating, Barnyardgrass: scale 0 to 100, 0 = no effect, 100 = complete control
Procedure, shortened: as §1

[12] = test system: barnyardgrass; assay: Test A preemergence; type: in vivo, Echinochloa crus-galli; details: preemergence
Procedure, shortened: as §2

[13] = test system: galium; assay: Test C preemergence; type: in vivo, Galium aparine; details: for Galium plant response rating / Plant response rating, Galium: preemergence; for Plant response rating, Galium: scale 0 to 100, 0 = no effect, 100 = complete control
Procedure, shortened: as §1

[14] = test system: corn; assay: Test C preemergence; type: in vivo, Zea mays; details: for Corn plant response rating / Plant response rating, Corn: preemergence; for Plant response rating, Corn: scale 0 to 100, 0 = no effect, 100 = complete control
Procedure, shortened: as §1

[15] = test system: sedge, umbrella; assay: Test B flood; type: in vivo, Cyperus difformis; details: 250 g ai/ha, visual rating on 0 to 100 scale (0 no effect, 100 complete control), 13 to 15 days
Procedure, shortened: as §3

[16] = 250 g ai/ha, scale 0 to 100 (0 no effect, 100 complete control)
[17] = 125 g ai/ha, scale 0 to 100, 0 no effect, 100 complete control
[18] = 31 g ai/ha, visual rating, scale 0 to 100 (0 no effect, 100 complete control), 13 to 15 days
[19] = 62 g ai/ha, scale 0 to 100 (0 no effect, 100 complete control), 13 to 15 days
[20] = 250 g ai/ha, scale 0 to 100, 0 is no effect, 100 is complete control
[21] = Postemergence, 500 g ai/ha, 0 to 100 scale (0 no effect, 100 complete control)
[22] = 500 g ai/ha, visual injury after approx. 10 days, 0 to 100 scale (0 no effect, 100 complete control)
[23] = postemergence, 125 g ai/ha, about 10 days, visual rating on 0 to 100 scale (0 no effect, 100 complete control)
[24] = 125 g ai/ha, visual injury, 0 to 100 scale, approx. 10 days
[25] = 125 g ai/ha, scale 0 to 100, 0 is no effect, 100 is complete control

Structure (SMILES): CCc1cc(C(=O)NCC(F)(F)F)nn1Cc1ccnc(SC(F)(F)F)c1 [Compound 214]
- Plant response rating (scale of 0 to 100 where 0 is no effect and 100 is complete control), Blackgrass [1]: 5
- Blackgrass plant response rating [1]: 5
- Plant response rating, Blackgrass [1, 16]: 50
- Plant response rating, Blackgrass [1, 17]: 10
- Oilseed Rape plant response rating [2]: 60
- Plant response rating, Oilseed Rape [2, 16]: 70
- Plant response rating, Oilseed Rape [2, 17]: 60
- Velvetleaf plant response rating (0 to 100 scale) ([3]; 125 g ai/ha): 100
- Morningglory plant response rating [4, 18]: 25
- Morningglory plant response rating [4, 19]: 98
- Plant response rating, Morningglory ([4]; 125 g ai/ha, 13 to 15 days): 100
- Morningglory plant response rating [4, 20]: 100
- Pigweed plant response rating (0 to 100 scale) ([5]; 125 g ai/ha): 100
- Wheat plant response rating ([6]; Postemergence, 125 g ai/ha, 0 to 100 scale, 0 no effect, 100 complete control): 80
- Wheat plant response rating [6, 21]: 90
- Plant response rating (scale of 0 to 100 where 0 is no effect and 100 is complete control), Galium [7]: 75
- Galium plant response rating [7]: 70
- Plant response rating, Galium [7, 16]: 90
- Plant response rating, Galium [7, 17]: 60
- Corn plant response rating (0 to 100 scale) ([8]; 125 g ai/ha): 10
- Corn plant response rating [8, 22]: 90
- Foxtail, Giant plant response rating (0 to 100 scale) ([9]; 125 g ai/ha): 100
- Foxtail, Giant plant response rating [9, 22]: 100
- Plant response rating, Ducksalad [10]: 90
- Barnyardgrass plant response rating [11, 18]: 40
- Barnyardgrass plant response rating [11, 19]: 95
- Plant response rating, Barnyardgrass ([11]; 125 g ai/ha, 13 to 15 days): 100
- Barnyardgrass plant response rating [11, 20]: 100
- Barnyardgrass plant response rating (0 to 100 scale, 0 is no effect, 100 is complete control) ([12]; 125 g ai/ha, visual injury approx. 10 days after treatment): 100
- Barnyardgrass plant response rating [12, 22]: 100
- Galium plant response rating [13, 18]: 80
- Galium plant response rating [13, 19]: 80
- Plant response rating, Galium ([13]; 125 g ai/ha, 13 to 15 days): 90
- Galium plant response rating [13, 20]: 80
- Corn plant response rating [14, 18]: 0
- Corn plant response rating [14, 19]: 0
- Plant response rating, Corn ([14]; 125 g ai/ha, 13 to 15 days): 35
- Corn plant response rating [14, 20]: 40
- Plant response rating, Sedge, Umbrella [15]: 95

Structure (SMILES): CCOc1cc(C(=O)NOC(C)C)nn1Cc1ccnc(C(F)(F)F)c1 [Compound 153]
- Plant response rating (scale of 0 to 100 where 0 is no effect and 100 is complete control), Blackgrass [1]: 0
- Blackgrass plant response rating [1]: 5
- Plant response rating, Blackgrass [1, 16]: 5
- Plant response rating, Blackgrass [1, 17]: 5
- Oilseed Rape plant response rating [2]: 25
- Plant response rating, Oilseed Rape [2, 16]: 45
- Plant response rating, Oilseed Rape [2, 17]: 40
- Velvetleaf plant response rating (0 to 100 scale) ([3]; 125 g ai/ha): 90
- Velvetleaf plant response rating [3, 22]: 100
- Morningglory plant response rating [4, 18]: 30
- Morningglory plant response rating [4, 19]: 80
- Plant response rating, Morningglory ([4]; 125 g ai/ha, 13 to 15 days): 100
- Morningglory plant response rating [4, 20]: 100
- Pigweed plant response rating (0 to 100 scale) ([5]; 125 g ai/ha): 100
- Pigweed plant response rating [5, 22]: 100
- Wheat plant response rating [6, 21]: 100
- Wheat plant response rating [6, 23]: 90
- Plant response rating (scale of 0 to 100 where 0 is no effect and 100 is complete control), Galium [7]: 50
- Galium plant response rating [7]: 60
- Plant response rating, Galium [7, 16]: 80
- Plant response rating, Galium [7, 17]: 70
- Corn plant response rating (0 to 100 scale) ([8]; 125 g ai/ha): 90
- Corn plant response rating [8, 22]: 100
- Foxtail, Giant plant response rating (0 to 100 scale) ([9]; 125 g ai/ha): 100
- Foxtail, Giant plant response rating [9, 22]: 100
- Plant response rating, Ducksalad [10]: 90
- Barnyardgrass plant response rating [11, 18]: 15
- Barnyardgrass plant response rating [11, 19]: 95
- Plant response rating, Barnyardgrass ([11]; 125 g ai/ha, 13 to 15 days): 100
- Barnyardgrass plant response rating [11, 20]: 100
- Barnyardgrass plant response rating [12, 24]: 90
- Barnyardgrass plant response rating [12, 22]: 100
- Galium plant response rating [13, 18]: 30
- Galium plant response rating [13, 19]: 100
- Plant response rating, Galium ([13]; 125 g ai/ha, 13 to 15 days): 100
- Galium plant response rating [13, 20]: 100
- Corn plant response rating [14, 18]: 10
- Corn plant response rating [14, 19]: 50
- Plant response rating, Corn ([14]; 125 g ai/ha, 13 to 15 days): 95
- Corn plant response rating [14, 20]: 98
- Plant response rating, Sedge, Umbrella [15]: 95

Structure (SMILES): CCc1cc(C(=O)NCC(F)(F)F)nn1Cc1nc(C(F)(F)F)nn1C [Compound 107]
- Plant response rating (scale of 0 to 100 where 0 is no effect and 100 is complete control), Blackgrass [1]: 10
- Blackgrass plant response rating [1]: 10
- Plant response rating, Blackgrass [1, 16]: 35
- Plant response rating, Blackgrass [1, 17]: 15
- Plant response rating (scale of 0 to 100 where 0 is no effect and 100 is complete control), Oilseed Rape ([2]; Postemergence, 31 g ai/ha, visually evaluated after 13 to 15 days): 5
- Oilseed Rape plant response rating [2]: 60
- Plant response rating, Oilseed Rape [2, 16]: 80
- Plant response rating, Oilseed Rape [2, 17]: 60
- Velvetleaf plant response rating [3, 24]: 90
- Velvetleaf plant response rating [3, 22]: 100
- Plant response rating (scale of 0 to 100), Morningglory ([4]; Preemergence, 250 g ai/ha): 100
- Morningglory plant response rating [4, 18]: 90
- Morningglory plant response rating [4, 19]: 100
- Morningglory plant response rating [4, 25]: 100
- Pigweed plant response rating [5, 24]: 100
- Pigweed plant response rating [5, 22]: 100
- Wheat plant response rating ([6]; Postemergence, 500 g ai/ha, visual rating after approx. 10 days, 0 to 100 scale (0 no effect, 100 complete control)): 80
- Wheat plant response rating [6, 23]: 30
- Plant response rating (scale of 0 to 100 where 0 is no effect and 100 is complete control), Galium [7]: 50
- Galium plant response rating [7]: 85
- Plant response rating, Galium [7, 16]: 90
- Plant response rating, Galium [7, 17]: 90
- Corn plant response rating [8, 24]: 30
- Corn plant response rating [8, 22]: 80
- Foxtail, Giant plant response rating [9, 24]: 100
- Foxtail, Giant plant response rating [9, 22]: 100
- Plant response rating, Ducksalad [10]: 70
- Plant response rating (scale of 0 to 100), Barnyardgrass ([11]; Preemergence, 250 g ai/ha): 100
- Barnyardgrass plant response rating ([11]; 31 g ai/ha, scale 0 to 100 (0 no effect, 100 complete control), 13 to 15 days): 40
- Barnyardgrass plant response rating [11, 19]: 100
- Barnyardgrass plant response rating [11, 25]: 100
- Barnyardgrass plant response rating [12, 24]: 100
- Barnyardgrass plant response rating [12, 22]: 100
- Plant response rating (scale of 0 to 100), Galium ([13]; Preemergence, 250 g ai/ha): 100
- Galium plant response rating [13, 18]: 75
- Galium plant response rating [13, 19]: 90
- Galium plant response rating [13, 25]: 95
- Plant response rating (scale of 0 to 100), Corn ([14]; Preemergence, 250 g ai/ha): 95
- Corn plant response rating [14, 18]: 30
- Corn plant response rating [14, 19]: 45
- Corn plant response rating [14, 25]: 90
- Plant response rating, Sedge, Umbrella [15]: 80
